Measurements: PubChem BioAssay AID2060621 (Molecular Pharmacology Branch, DTP, NCI, 2025)
pIC50: −log10 of the molar value. Where “and” joins values, the source holds several entries; their conditions need not be identical. Equal entries are not always repeated.

Tested on: 324938-238-R-J1-PDC complex spheroids viability
Experiment: Anticancer human tumor 324938-238-R-J1-PDC patient-derived bladder carcinoma cell line growth inhibition [CLK]
Conditions: for viability, T/C: stronger effect = lower value
Summary of the method: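 Patient-derived tumor cells grown as complex spheroids with HUVEC endothelial cells and mesenchymal stem cells, treated with drug combinations. Concentrations descend in half-log steps from near clinical Cmax, or from 10 microM if Cmax unknown.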

[1] = curve of first compound, second compound 0.0316 µM
[2] = curve of first compound, second compound 0.1 µM
[3] = curve of first compound, second compound 0.316 µM
[4] = curve of first compound, second compound 1 µM
[5] = curve of first compound, second compound 3.16 µM
[6] = curve of first compound, second compound 10 µM
[7] = second compound 0.0316 µM, first compound 0.0316 µM
[8] = second compound 0.0316 µM, first compound 0.1 µM
[9] = second compound 0.0316 µM, first compound 0.316 µM
[10] = second compound 0.0316 µM, first compound 1 µM
[11] = second compound 0.0316 µM, first compound 3.16 µM
[12] = second compound 0.0316 µM, first compound 10 µM
[13] = second compound 0.1 µM, first compound 0.0316 µM
[14] = second compound 0.1 µM, first compound 0.1 µM
[15] = second compound 0.1 µM, first compound 0.316 µM
[16] = second compound 0.1 µM, first compound 1 µM
[17] = second compound 0.1 µM, first compound 3.16 µM
[18] = second compound 0.1 µM, first compound 10 µM
[19] = second compound 0.316 µM, first compound 0.0316 µM
[20] = second compound 0.316 µM, first compound 0.1 µM
[21] = second compound 0.316 µM, first compound 0.316 µM
[22] = second compound 0.316 µM, first compound 1 µM
[23] = second compound 0.316 µM, first compound 3.16 µM
[24] = second compound 0.316 µM, first compound 10 µM
[25] = second compound 1 µM, first compound 0.0316 µM
[26] = second compound 1 µM, first compound 0.1 µM
[27] = second compound 1 µM, first compound 0.316 µM
[28] = second compound 1 µM, first compound 1 µM
[29] = second compound 1 µM, first compound 3.16 µM
[30] = second compound 1 µM, first compound 10 µM
[31] = second compound 3.16 µM, first compound 0.0316 µM
[32] = second compound 3.16 µM, first compound 0.1 µM
[33] = second compound 3.16 µM, first compound 0.316 µM
[34] = second compound 3.16 µM, first compound 1 µM
[35] = second compound 3.16 µM, first compound 3.16 µM
[36] = second compound 3.16 µM, first compound 10 µM
[37] = second compound 10 µM, first compound 0.0316 µM
[38] = second compound 10 µM, first compound 0.1 µM
[39] = second compound 10 µM, first compound 0.316 µM
[40] = second compound 10 µM, first compound 1 µM
[41] = second compound 10 µM, first compound 3.16 µM
[42] = second compound 10 µM, first compound 10 µM
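Note: viability read after seven days of drug exposure.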
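Throughout, for viability, T/C: 100% = DMSO vehicle control wells.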

C=CC(=O)N1CCN(c2nc(=O)n(-c3c(C)ccnc3C(C)C)c3nc(-c4c(O)cccc4F)c(F)cc23)C(C)C1 (configuration not stated) + CN1CCN(c2cc(C(=O)Nc3cc4cc(-c5cnn(C)c5)ccc4cn3)ccn2)CC1
pIC50 [1]: < 5.00 | pIC50 [2]: < 5.00 | pIC50 [3]: > 7.50 | pIC50 [4]: > 7.50 | pIC50 [5]: > 7.50 | pIC50 [6]: > 7.50 | viability, T/C [7]: 79.2% | viability, T/C [8]: 77.8% | viability, T/C [9]: 84.5% | viability, T/C [10]: 103% | viability, T/C [11]: 87.4% | viability, T/C [12]: 82.7% | viability, T/C [13]: 59.6% | viability, T/C [14]: 61.4% | viability, T/C [15]: 63.2% | viability, T/C [16]: 64.8% | viability, T/C [17]: 66.6% | viability, T/C [18]: 59.9% | viability, T/C [19]: 27.4% | viability, T/C [20]: 25% | viability, T/C [21]: 27.4% | viability, T/C [22]: 28.9% | viability, T/C [23]: 35.5% | viability, T/C [24]: 27.8% | viability, T/C [25]: 1.25% | viability, T/C [26]: 1.85% | viability, T/C [27]: 1.99% | viability, T/C [28]: 1.7% | viability, T/C [29]: 1.08% | viability, T/C [30]: 0.78% | viability, T/C [31]: 0.13% | viability, T/C [32]: 0.25% | viability, T/C [33]: 0.19% | viability, T/C [34]: 0.16% | viability, T/C [35]: 0.12% | viability, T/C [36]: 0.25% | viability, T/C [37]: 0.2% | viability, T/C [38]: 0.19% | viability, T/C [39]: 0.18% | viability, T/C [40]: 0.15% | viability, T/C [41]: 0.16% | viability, T/C [42]: 0.33%

Nc1ccn(C2OC(CO)C(O)C2(F)F)c(=O)n1 (configuration not stated) + CN1CCN(c2cc(C(=O)Nc3cc4cc(-c5cnn(C)c5)ccc4cn3)ccn2)CC1
pIC50 [1]: > 7.50 | pIC50 [2]: > 7.50 | pIC50 [3]: > 7.50 | pIC50 [4]: > 7.50 | pIC50 [5]: > 7.50 | pIC50 [6]: > 7.50 | viability, T/C [7]: 31.4% | viability, T/C [8]: 16.4% | viability, T/C [9]: 11.3% | viability, T/C [10]: 11.3% | viability, T/C [11]: 6.96% | viability, T/C [12]: 6.17% | viability, T/C [13]: 25.3% | viability, T/C [14]: 14.2% | viability, T/C [15]: 11.5% | viability, T/C [16]: 10.8% | viability, T/C [17]: 5.43% | viability, T/C [18]: 4.89% | viability, T/C [19]: 18.9% | viability, T/C [20]: 12.7% | viability, T/C [21]: 10.2% | viability, T/C [22]: 8.86% | viability, T/C [23]: 5.88% | viability, T/C [24]: 1.97% | viability, T/C [25]: 0.83% | viability, T/C [26]: 0.6% | viability, T/C [27]: 0.57% | viability, T/C [28]: 0.45% | viability, T/C [29]: 0.37% | viability, T/C [30]: 0.22% | viability, T/C [31]: 0.13% | viability, T/C [32]: 0.16% | viability, T/C [33]: 0.15% | viability, T/C [34]: 0.12% | viability, T/C [35]: 0.14% | viability, T/C [36]: 0.19% | viability, T/C [37]: 0.11% | viability, T/C [38]: 0.12% | viability, T/C [39]: 0.19% | viability, T/C [40]: 0.12% | viability, T/C [41]: 0.17% | viability, T/C [42]: 0.16%

CNC(=O)c1ccc(Nc2nc(OC3CCCC3)c3c(-c4ccc5nc(C)oc5c4)c[nH]c3n2)c(OC)c1
viability, T/C (compound 0.0316 µM): 86% [middle of 12 runs] | viability, T/C (compound 0.1 µM): 28.1% [middle of 12 runs] | viability, T/C (compound 0.316 µM): 18.9% [middle of 12 runs] | viability, T/C (compound 1 µM): 15.9% [middle of 12 runs] | viability, T/C (compound 3.16 µM): 16.8% [middle of 12 runs] | viability, T/C (compound 10 µM): 17.5% [middle of 12 runs] | IC50 (compound alone, run of 08/15/2023): 62.5 nM [middle of 11 runs]

Nc1ccn(C2OC(CO)C(O)C2(F)F)c(=O)n1 (configuration not stated)
viability, T/C (compound 0.0316 µM): 27.6% and 25.4% | viability, T/C (compound 0.1 µM): 12.5% and 15% | viability, T/C (compound 0.316 µM): 10.8% and 12.3% | viability, T/C (compound 1 µM): 10.8% and 13.3% | viability, T/C (compound 3.16 µM): 8.49% and 10.3% | viability, T/C (compound 10 µM): 6.92% and 8.69% | pIC50 (curve of compound): > 7.50

COc1c(OCCCN2CCOCC2)ccc2c3n(c(=NC(=O)c4cnc(N)nc4)nc12)CCN3 + CNC(=O)c1ccc(Nc2nc(OC3CCCC3)c3c(-c4ccc5nc(C)oc5c4)c[nH]c3n2)c(OC)c1
pIC50 [1]: 7.67 | pIC50 [2]: > 8.50 | pIC50 [3]: > 8.50 | pIC50 [4]: > 8.50 | pIC50 [5]: > 8.50 | pIC50 [6]: > 8.50 | viability, T/C (second compound 0.0316 µM, first compound 0.00316 µM): 72.8% | viability, T/C (second compound 0.0316 µM, first compound 0.01 µM): 66.1% | viability, T/C [7]: 41.3% | viability, T/C [8]: 19.4% | viability, T/C [9]: 7.32% | viability, T/C [10]: 0.92% | viability, T/C (second compound 0.1 µM, first compound 0.00316 µM): 36.3% | viability, T/C (second compound 0.1 µM, first compound 0.01 µM): 34.7% | viability, T/C [13]: 32.4% | viability, T/C [14]: 19.4% | viability, T/C [15]: 6.56% | viability, T/C [16]: 1.65% | viability, T/C (second compound 0.316 µM, first compound 0.00316 µM): 15.5% | viability, T/C (second compound 0.316 µM, first compound 0.01 µM): 12.7% | viability, T/C [19]: 10.2% | viability, T/C [20]: 4.98% | viability, T/C [21]: 2.15% | viability, T/C [22]: 0.5% | viability, T/C (second compound 1 µM, first compound 0.00316 µM): 15.6% | viability, T/C (second compound 1 µM, first compound 0.01 µM): 12.1% | viability, T/C [25]: 6.92% | viability, T/C [26]: 4.04% | viability, T/C [27]: 1.17% | viability, T/C [28]: 0.45% | viability, T/C (second compound 3.16 µM, first compound 0.00316 µM): 15.5% | viability, T/C (second compound 3.16 µM, first compound 0.01 µM): 12.8% | viability, T/C [31]: 8.33% | viability, T/C [32]: 3.11% | viability, T/C [33]: 0.87% | viability, T/C [34]: 0.39% | viability, T/C (second compound 10 µM, first compound 0.00316 µM): 14.3% | viability, T/C (second compound 10 µM, first compound 0.01 µM): 10.3% | viability, T/C [37]: 6.72% | viability, T/C [38]: 3.94% | viability, T/C [39]: 1.19% | viability, T/C [40]: 0.48%

C=CC(=O)Nc1cc(Nc2nccc(-c3cn(C)c4ccccc34)n2)c(OC)cc1N(C)CCN(C)C
viability, T/C (compound 0.000949 µM): 71.7% and 84% | viability, T/C (compound 0.003 µM): 79.8% and 82.5% | viability, T/C (compound 0.00949 µM): 62.2% and 65.2% | viability, T/C (compound 0.03 µM): 69.3% and 61.8% | viability, T/C (compound 0.0949 µM): 36.1% and 45.5% | viability, T/C (compound 0.3 µM): 22.2% and 22.7% | pIC50 (curve of compound): 7.23 and 7.21
